Reference: article PMC10829512, “Transport of metformin metabolites by guanidinium exporters of the small multidrug resistance family” (The Journal of General Physiology, 2024)

Tests used:
Gdx-Clo = biological target: T1, Gdx-Clo (Clostridiales bacterium oral taxon 876, UniProt U2EQ00); assay: Pyranine stoichiometry assay in proteoliposomes; assay type: biochemical, Clostridales oral taxon 876; details: 10-fold substrate gradient, equilibrium at −60 mV
T1 sequence (U2EQ00 1-105): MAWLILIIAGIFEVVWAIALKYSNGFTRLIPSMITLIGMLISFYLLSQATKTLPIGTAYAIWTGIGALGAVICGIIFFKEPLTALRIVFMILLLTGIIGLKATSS
Method: Unilamellar liposomes were formed by extrusion through a 400-nm membrane filter and the external pyranine was removed by passing liposomes through a Sephadex G-50 column spin column equilibrated in an internal buffer with substrate. The external assay buffers contained 25 mM HEPES, pH 7.53, 0.4 mM substrate, and varying KCl concentration (3–46 mM) to establish the membrane potential, with NaCl to bring the total salt concentration to 200 mM. Proteoliposomes were diluted 200-fold into the external buffer, and after ∼30 s to establish a baseline, valinomycin (final concentration 0.2 ng/ml) was added together with the substrate (final concentration 4 mM). Fluorescence spectra were monitored (λex = 455 nm; λem = 515 nm) for ∼300 s. The membrane potential was calculated using the Nernst potential for K^+: ψcalc=RT/Fln[K^+]out/[K^+]in. (1)
Fluorescence emission time courses were corrected for baseline drift measured prior to substrate and valinomycin addition. The stoichiometry was determined from the voltage at which electrochemical equilibrium occurred (no change in fluorescence over time) using the following equation: Erev=(n/m−n*RT/Fln[substrate^+]in/[substrate^+]out), (2) where n and m represent the stoichiometric coefficients of substrate and protons, respectively. […]

Gdx-Eco = Gdx-Eco (Escherichia coli, UniProt P69937); set-up: method as in Kermani et al., 2018; Thomas et al., 2021; details: ref Kermani et al., 2018, Thomas et al., 2021; cited from earlier work
Gdx-Eco, sequence (P69937 whole entry): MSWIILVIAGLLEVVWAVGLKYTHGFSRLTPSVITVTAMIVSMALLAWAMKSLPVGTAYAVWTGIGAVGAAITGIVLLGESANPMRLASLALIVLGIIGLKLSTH

Gdx-Clo A70C/S104C = assay: Tryptophan fluorescence binding to crosslinked variant; set-up: species or system Clostridales oral taxon 876; details: A70C/S104C under oxidizing conditions, read-out: Kd, fit to a single-site binding model
Method: Fluorescence emission spectra (λex = 280 nm, […]) were collected for 1 µM purified protein in assay buffer containing 200 mM NaCl, 10 mM HEPES, 10 mM bicine, 10 mM NaPO4, and 5 mM DM, with pH adjusted from 6.5 to 9.0. Substrate was added from a stock solution prepared in assay buffer. For Gdm^+ titrations, the change in fluorescence, F, as a function of substrate fit to a single site binding isotherm, ∆F=(Fmax[S]/Kd+[S]). (3)
For all SSM electrophysiology experiments, the shapes of the substrate-induced currents are characteristic of transport, rather than electrogenic presteady binding events. However, we sought to confirm this interpretation for at least one transporter/substrate pair. Using the structure of Gdx-Clo ([Kermani et al., 2020]), we introduced a pair of cysteines, A70C and S104C, that are within the crosslinking distance (∼6 Å) on the open side of the transporter, but that increase in distance when the transporter changes conformation. We expected that the formation of a crosslink would lock the transporter in one open conformation, impairing transport, with little effect on substrate binding (Fig. 2 C). […] Substrate exchange is restored in reducing conditions. […]

N=C(N)N [Gdm^+, guanidinium]
Proton coupling stoichiometry (Gdx-Clo): 2 H^+: 1 solute | Proton coupling stoichiometry (Gdx-Eco): 2 H^+: 1 Gdm^+ | Kd (Gdx-Clo A70C/S104C): 560 µM

N=C(N)NC(N)=O [Guanylurea, guanylurea]
Proton coupling stoichiometry (Gdx-Clo): 2 H^+: 1 solute
